{"source": "patent US20230082287A1", "about": "“METHODS OF TREATING AN INFLAMMATORY OR OBSTRUCTIVE AIRWAY DISEASE USING ANTI-TSLP ANTIBODY” (Novartis AG, priority 2020, published 2023)", "key": {"[1]": {"tested_on": "late asthmatic response (LAR)", "details": "400/12 μg; J ALLERGY CLIN IMMUNOL VOLUME 119, NUMBER 2, pp 322-327; cited from earlier work"}, "[2]": {"tested_on": "late asthmatic response (LAR)", "assay": "Published allergen challenge LAR data for budesonide/formoterol", "assay_type": "in vivo", "details": "400/12 μg; calculated from published data", "source_text": "Published data from other widely asthma treatment budosenide/formoterol (ICS/LABA, inhaled corticosteroid+long-acting beta agonist) combination was used in a similar fashion to calculate its efficacy and results compared with CSJ117 in Table 10."}}}
{"substance": "Budesonide/formoterol", "values": [{"measurement": "LAR Treatment (A), maximal fall % FEV1", "setting": "[1]", "result": 4.2, "unit": "%"}, {"measurement": "E, % [(B-A)/B]*100", "setting": "[2]", "result": 80.2, "unit": "%"}, {"measurement": "LAR B-A (placebo minus treatment), maximal fall % FEV1", "setting": "[2]", "result": 17}]}
